Reference: patent US10806735B2, “Use of neutrophil elastase inhibitors in liver disease” (pH Pharma Co., Ltd., priority 2018, dated 2020)
Where two headings read alike, the source gives them in different places.

Assays:
[1] = Example 2: body weight of DIO mice, 6 weeks once daily oral dosing; assay type: in vivo; settings: for terminal body weight: after 6 weeks, mean±SEM; for body weight at baseline: baseline before treatment
Method: (§1) Male DIO (diet-induced obesity) mice (C57BLJ6NTac DIO MPF, n=35) were purchased from Taconic Biosciences (Rensselaer, N.Y.). DIO mice were prepared by feeding male C57BL16 mice a high fat diet (HFD, D12492; Research Diets, Inc., New Brunswick, N.J.) from 6-16 weeks of age. A twelve-hour light cycle was maintained throughout study duration. Room temperature was monitored daily and maintained at 22-25° C. DIO mice were housed individually and maintained on the HFD during a 7-day facility acclimation period and throughout the study period. All mice were administered vehicle (5% DMSO/3% ethanol/92% peanut oil) once daily during the acclimation period.
(§2) Compounds were administered once daily in the morning by oral gavage for 6 weeks. Dose volume was maintained at 5 ml/kg throughout the study.
(§3) Whole blood was obtained weekly from fed animals by tail clip for measurement of non-fasted blood glucose (StatStrip; Nova Biomedical, Waltham, Mass.) on day 7, day 14, day 21 and day 35 after first dosing. Body weight was recorded prior to glucose measurement at baseline and weekly thereafter. Oral glucose tolerance tests were performed in fasted mice at baseline (day −1), day 28 and day 42 thereafter. […] At the end of the 6-hour fasting period, mice were challenged with glucose (2 g/kg, 10 ml/kg, by oral gavage). Blood samples were obtained by tail clip at 0, 20, 40, 60, 90 and 120 minutes post-glucose load for assessment of blood glucose by StatStrip. Serum insulin was measured from time 0 blood samples of OGTT using the Mouse/Rat Insulin Kit (MSD #K152BZC; Meso Scale Diagnostics, Rockville, Md.).
(§4) All data are represented as group mean±SEM. Data were analyzed using JMP (SAS software). All normalizations were calculated using terminal body weight. […] Treatment effects compared to vehicle were determined using Oneway ANOVA (*, p<0.05) followed by Dunnett's test where appropriate.

DIO mice [2] = experiment: Example 2: blood glucose (fasted and fed) in DIO mice; assay type: in vivo; settings: for fed glucose on day 35: vehicle 134.5±6.9; for fasted blood glucose at study start: baseline before treatment
Method: as §1, §2, §3, §4

DIO mice [3] = experiment: Example 2: fasted serum insulin in DIO mice; assay type: in vivo; settings: for fasted serum insulin on day 42: vehicle 8.2±1.5; for fasted serum insulin at baseline: baseline before treatment
Method: as §1, §2, §3, §4

DIO mice [4] = experiment: Example 2: terminal liver and epididymal fat weights in DIO mice; assay type: in vivo; settings: 6 weeks; for epididymal fat weight (% body weight): vehicle 3.4±0.3; for liver weight (% body weight): vehicle 5.6±0.2
Method: Animals were terminated using CO2 inhalation and induction of pneumothorax. Four mice from each treatment group were sacrificed at 0.5 hr post dose and four were sacrificed at 4 hours post dose. […] Organ weights (liver, epididymal fat) were recorded. All data are represented as group mean±SEM. Data were analyzed using JMP (SAS software). All normalizations were calculated using terminal body weight. All assigned animals completed the study. […] Treatment effects compared to vehicle were determined using Oneway ANOVA (*, p<0.05) followed by Dunnett's test where appropriate.

HFD-fed mice = settings: cited from earlier work
[5] = Solubility and hygroscopicity of the drug substance; assay type: physicochemical
DIO mice [6] = experiment: Example 2: oral glucose tolerance test (OGTT) in DIO mice; assay type: in vivo; settings: for decrease of glucose AUC on day 42 compared to baseline: vehicle 12.6±10.3%; for OGTT glucose AUC on day 42: vehicle 27.8±1.2; for OGTT glucose AUC on day 28: vehicle 27.9±1.1; for OGTT glucose AUC at baseline: day −1 before treatment
Method: as §1, §2, §3, §4

[7] = Example 3: body weight of DIO mice, 4 weeks BID oral dosing; assay type: in vivo; settings: for body weight growth rate / body weight at the end of the study: 4 weeks; for body weight growth rate: vehicle 9.2±2.0%; for body weight at the end of the study: vehicle 48.8±0.9; for body weight at baseline: baseline before treatment
Method: (§5) Body weight was recorded prior to glucose measurement at baseline and weekly thereafter. All data are represented as group mean±SEM. Data were analyzed using Prism 7.0 (Graphpad software). All normalizations were calculated using terminal body weight. All assigned animals completed the study. […] Treatment effects compared to vehicle were determined using Oneway ANOVA (*, p<0.05; *, P<0.01) followed by Dunnett's test where appropriate.

DIO mice [8] = experiment: Example 3: blood glucose in DIO mice; assay type: in vivo; settings: for blood glucose at day 28: vehicle 143.0±7.1; for fasted blood glucose at study start: baseline before treatment
Method: as §5, with “thereafter. […]” for “thereafter.”

DIO mice [9] = experiment: Example 3: oral glucose tolerance test (OGTT) in DIO mice; assay type: in vivo; settings: for OGTT glucose AUC on day 28: vehicle 25.5±1.4; for OGTT glucose AUC at baseline: day −1 before treatment
Method: as §5, with “All” for “Body weight was recorded prior to glucose measurement at baseline and weekly thereafter. All”

DIO mice [10] = experiment: Example 3: fasted serum insulin in DIO mice; assay type: in vivo; settings: for fasted serum insulin on day 28: vehicle 7.7±1.6; for fasted serum insulin at baseline: baseline before treatment
Method: as §5, with “All” for “Body weight was recorded prior to glucose measurement at baseline and weekly thereafter. All”

[11] = Example 4: Phase 1 single-ascending dose study in healthy subjects, pharmacokinetics; assay type: in vivo, human; settings: single doses 1 to 40 mg
[12] = healthy subjects, cited from earlier work
[13] = non-CF BE patients, 28 days, cited from earlier work
[14] = Example 4: Phase 1 single-ascending dose study in healthy subjects, safety; settings: single doses 1 to 40 mg
Source text: Following Screening, subjects received single doses of study drug and were monitored during an in-clinic period and an out-patient follow-up period. Subjects were confined to the study site for Study Days −2 through 7 to collect PK and safety assessments. Following discharge from the study site on Study Day 7, subjects returned to the study site on Study Days 14, 21, 28, and 35.

SMILES: CN(CCOc1ccc(CC2SC(=O)NC2=O)cc1)c1ccccn1 (stereo not drawn) [rosiglitazone, reference compound]
- terminal body weight ([1]; 30 mg/kg/day PO): 55.0 ± 1.4 g
- body weight at baseline ([1]; group assigned to 30 mg/kg/day): 42.8 ± 1.0 g
- decrease of fasting glucose compared to baseline (DIO mice [2]; 30 mg/kg/day PO, 6 weeks): 23%
- fasting glucose after 6 weeks of treatment (DIO mice [2]; 30 mg/kg/day PO, 6 weeks): 125.8 ± 4.8 mg/dL
- fed glucose on day 35 (DIO mice [2]; 30 mg/kg/day PO): 125.5 ± 4.5 mg/dL
- fasted blood glucose at study start (DIO mice [2]; group assigned to 30 mg/kg/day): 164.0 ± 4.0 mg/dL
- fasted serum insulin on day 42 (DIO mice [3]; 30 mg/kg/day PO): 1.3 ± 0.1 ng/mL
- fasted serum insulin at baseline (DIO mice [3]; group assigned to 30 mg/kg/day): 5.2 ± 1.1 ng/mL
- epididymal fat weight (% body weight) (DIO mice [4]; 30 mg/kg/day PO): 3.7±0.2%
- liver weight (% body weight) (DIO mice [4]; 30 mg/kg/day PO): 5.0±0.2%

SMILES: CC(C)[C@@H]1C(=O)N(S(C)(=O)=O)[C@@H]2CCN(C(=O)/C=C/CN3CCCCC3)[C@H]21.Cl [GW311616A]
- glucose tolerance (HFD-fed mice; HFD mice (Talukdar 2012)): improved glucose tolerance
- insulin sensitivity in glucose clamp/tracer studies (HFD-fed mice; HFD mice (Talukdar 2012)): increased peripheral and hepatic insulin sensitivity
- insulin resistance and body weight gain (HFD-fed mice; HFD-fed mice (Mansuy-Aubert 2013)): reversed insulin resistance and body weight gain

SMILES: CC1=C(C#N)[C@@H](c2ccc(C#N)cc2S(C)(=O)=O)N(C)C(=O)N1c1cccc(C(F)(F)F)c1 [Compound 1, (4S)-4-[4-cyano-2-(methylsulfonyl)phenyl]-3,6-dimethyl-2-oxo-1-[3-(trifluoromethyl)phenyl]-1,2,3,4-tetrahydropyrimidine-5-carbonitrile]
- solubility in acetone ([5]; acetone): soluble
- solubility in ethanol ([5]; ethanol): very slightly soluble
- hygroscopicity ([5]; normal storage conditions): not hygroscopic
- solubility in water ([5]; water): practically insoluble
- terminal body weight ([1]; 3 mg/kg/day PO): 49.8 ± 0.9 g
- growth rate of body weight ([1]; 15 mg/kg/day PO, 6 weeks, vehicle 14±1.8%): 6.9±1.8%
- terminal body weight ([1]; 15 mg/kg/day PO): 47.3 ± 1.1 g
- body weight at baseline ([1]; group assigned to 3 mg/kg/day): 42.8 ± 1.1 g
- body weight at baseline ([1]; group assigned to 15 mg/kg/day): 42.8 ± 1.0 g
- fed glucose on day 35 (DIO mice [2]; 3 mg/kg/day PO): 128.3 ± 3.4 mg/dL
- decrease of fasting glucose from baseline (DIO mice [2]; 15 mg/kg/day PO, 6 weeks): 11%
- fed glucose on day 35 (DIO mice [2]; 15 mg/kg/day PO): 134.9 ± 4.7 mg/dL
- fasted blood glucose at study start (DIO mice [2]; group assigned to 3 mg/kg/day): 160.3 ± 5.7 mg/dL
- fasted blood glucose at study start (DIO mice [2]; group assigned to 15 mg/kg/day): 164.6 ± 7.3 mg/dL
- decrease of glucose AUC on day 42 compared to baseline (DIO mice [6]; 3 mg/kg PO): 20.0±4.5%
- OGTT glucose AUC on day 42 (DIO mice [6]; 3 mg/kg/day PO): 28.6±0.7 mg/dL/min×10^3
- OGTT glucose AUC on day 28 (DIO mice [6]; 3 mg/kg/day PO): 24.0±0.9 mg/dL·min×10^3
- decrease of glucose AUC on day 42 compared to baseline (DIO mice [6]; 15 mg/kg PO): −21.9±5.0%
- OGTT glucose AUC on day 42 (DIO mice [6]; 15 mg/kg/day PO): 26.3±1.1 mg/dL/min×10^3
- OGTT glucose AUC on day 28 (DIO mice [6]; 15 mg/kg/day PO): 22.7±0.7 mg/dL·min×10^3
- OGTT glucose AUC at baseline (DIO mice [6]; group assigned to 3 mg/kg/day): 36.3±2.0 mg/dL·min×10^3
- OGTT glucose AUC at baseline (DIO mice [6]; group assigned to 15 mg/kg/day): 34.4±2.2 mg/dL·min×10^3
- fasted serum insulin on day 42 (DIO mice [3]; 3 mg/kg/day PO (low dose)): 11.8 ± 1.3 ng/mL
- fasted serum insulin on day 42 (DIO mice [3]; 15 mg/kg/day PO (higher dose)): 5.9 ± 1.5 ng/mL
- fasted serum insulin at baseline (DIO mice [3]; group assigned to 3 mg/kg/day): 3.5 ± 0.5 ng/mL
- fasted serum insulin at baseline (DIO mice [3]; group assigned to 15 mg/kg/day): 5.4 ± 1.0 ng/mL
- epididymal fat weight (% body weight) (DIO mice [4]; 3 mg/kg/day PO): 3.1±0.3%
- liver weight (% body weight) (DIO mice [4]; 3 mg/kg/day PO): 6.8±0.3%
- epididymal fat weight (% body weight) (DIO mice [4]; 15 mg/kg/day PO): 3.5±0.2%
- liver weight (% body weight) (DIO mice [4]; 15 mg/kg/day PO): 6.4±0.2%
- body weight growth rate ([7]; 15 mg/kg BID PO): 5.9±1.6%
- body weight at the end of the study ([7]; 15 mg/kg BID PO): 47.5 ± 1.3 g
- body weight growth rate ([7]; 30 mg/kg BID PO): 2.8±2.3%
- body weight at the end of the study ([7]; 30 mg/kg BID PO): 46.0 ± 1.2 g
- body weight at baseline ([7]; group assigned to 15 mg/kg BID): 44.8 ± 0.7 g
- body weight at baseline ([7]; group assigned to 30 mg/kg BID): 44.8 ± 0.7 g
- blood glucose at day 28 (DIO mice [8]; 15 mg/kg BID PO): 151.9 ± 6.1 mg/dL
- blood glucose at day 28 (DIO mice [8]; 30 mg/kg BID PO): 137.3 ± 4.1 mg/dL
- fasted blood glucose at study start (DIO mice [8]; group assigned to 15 mg/kg BID): 185.1 ± 8.3 mg/dL
- fasted blood glucose at study start (DIO mice [8]; group assigned to 30 mg/kg BID): 180.1 ± 7.0 mg/dL
- OGTT glucose AUC on day 28 (DIO mice [9]; 15 mg/kg BID PO): 24.7±1.9 mg/dL·min×10^3
- OGTT glucose AUC on day 28 (DIO mice [9]; 30 mg/kg BID PO): 22.4±1.0 mg/dL·min×10^3
- OGTT glucose AUC at baseline (DIO mice [9]; group assigned to 15 mg/kg BID): 33.8±0.9 mg/dL-min×10^3
- OGTT glucose AUC at baseline (DIO mice [9]; group assigned to 30 mg/kg BID): 32.8±1.8 mg/dL-min×10^3
- fasted serum insulin on day 28 (DIO mice [10]; 15 mg/kg BID PO): 5.8 ± 1.4 ng/mL
- fasted serum insulin on day 28 (DIO mice [10]; 30 mg/kg BID PO): 4.0 ± 0.3 ng/mL
- fasted serum insulin at baseline (DIO mice [10]; group assigned to 15 mg/kg BID): 7.0 ± 1.1 ng/mL
- fasted serum insulin at baseline (DIO mice [10]; group assigned to 30 mg/kg BID): 4.9 ± 0.6 ng/mL
- exposure (AUC and Cmax) versus dose [11]: proportional increases in exposure (AUC and Cmax) with dose
- safety and tolerability ([12]; single and repeated doses up to 1 mg for up to 14 days): safe and well tolerated
- serious adverse events (SAEs) ([12]; three Phase 1 studies): no serious AEs (SAEs) were reported
- study drug-induced laboratory or ECG abnormalities ([12]; three Phase 1 studies): No safety signals
- safety and tolerability ([13]; 1.0 mg oral IR tablet): generally safe and well tolerated
- SAEs attributed to the drug ([13]; 1.0 mg oral): no SAEs were attributed by the investigator to the drug
- study drug-induced laboratory parameter or ECG effects ([13]; 1.0 mg oral): No safety signals
- AE rate compared with placebo subjects [14]: somewhat lower than that in the control (placebo) subjects
- effects on laboratory safety evaluations (clinical chemistry and hematology) [14]: no clear effects
- serious AEs, discontinuations, deaths [14]: no serious AEs and no discontinuations or deaths
- occurrence of headache ([14]; 36 subjects on drug): only observed in one Compound 1 subject
